Reference: paper PMC6199744, “Development of Chemical Proteomics for the Folateome and Analysis of the Kinetoplastid Folateome” (ACS Infectious Diseases, 2018)
Read-outs that look alike come from different tables or passages of the source.

Key:
Type in all cases: binding
[1] = target: T1, HeLa cell extract proteins (Homo sapiens, UniProt P07437)
T1 construct: endogenous in cells; host or cells: HeLa cell extract

[2] = target: T2, HeLa cell extract proteins (Homo sapiens, UniProt P12277)
T2 construct: endogenous in cells; host or cells: HeLa cell extract
T2 sequence (P12277 whole entry): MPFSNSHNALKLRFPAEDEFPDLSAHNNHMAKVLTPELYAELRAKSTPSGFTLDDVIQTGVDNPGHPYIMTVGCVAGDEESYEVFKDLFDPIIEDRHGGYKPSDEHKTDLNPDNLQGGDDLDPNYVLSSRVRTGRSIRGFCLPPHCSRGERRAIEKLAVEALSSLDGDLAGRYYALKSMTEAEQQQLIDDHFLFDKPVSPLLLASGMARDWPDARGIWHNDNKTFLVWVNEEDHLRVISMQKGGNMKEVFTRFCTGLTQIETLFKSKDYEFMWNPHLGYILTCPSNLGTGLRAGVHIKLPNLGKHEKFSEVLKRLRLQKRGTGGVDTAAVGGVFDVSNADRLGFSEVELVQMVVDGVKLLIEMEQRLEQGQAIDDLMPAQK

[3] = target: T3, HeLa cell extract proteins (Homo sapiens, UniProt P53701)
T3 construct: endogenous in cells; host or cells: HeLa cell extract
T3 sequence (P53701 1-268): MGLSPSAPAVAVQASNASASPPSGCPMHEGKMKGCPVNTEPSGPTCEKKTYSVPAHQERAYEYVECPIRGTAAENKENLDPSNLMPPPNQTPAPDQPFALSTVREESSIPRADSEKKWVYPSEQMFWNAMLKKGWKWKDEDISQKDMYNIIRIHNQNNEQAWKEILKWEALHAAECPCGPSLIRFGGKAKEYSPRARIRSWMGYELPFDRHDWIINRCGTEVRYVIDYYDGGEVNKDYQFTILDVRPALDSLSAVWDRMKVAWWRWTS

[4] = target: T4, HeLa cell extract proteins (Homo sapiens, UniProt P55072)
T4 construct: endogenous in cells; host or cells: HeLa cell extract
T4 sequence (P55072 whole entry): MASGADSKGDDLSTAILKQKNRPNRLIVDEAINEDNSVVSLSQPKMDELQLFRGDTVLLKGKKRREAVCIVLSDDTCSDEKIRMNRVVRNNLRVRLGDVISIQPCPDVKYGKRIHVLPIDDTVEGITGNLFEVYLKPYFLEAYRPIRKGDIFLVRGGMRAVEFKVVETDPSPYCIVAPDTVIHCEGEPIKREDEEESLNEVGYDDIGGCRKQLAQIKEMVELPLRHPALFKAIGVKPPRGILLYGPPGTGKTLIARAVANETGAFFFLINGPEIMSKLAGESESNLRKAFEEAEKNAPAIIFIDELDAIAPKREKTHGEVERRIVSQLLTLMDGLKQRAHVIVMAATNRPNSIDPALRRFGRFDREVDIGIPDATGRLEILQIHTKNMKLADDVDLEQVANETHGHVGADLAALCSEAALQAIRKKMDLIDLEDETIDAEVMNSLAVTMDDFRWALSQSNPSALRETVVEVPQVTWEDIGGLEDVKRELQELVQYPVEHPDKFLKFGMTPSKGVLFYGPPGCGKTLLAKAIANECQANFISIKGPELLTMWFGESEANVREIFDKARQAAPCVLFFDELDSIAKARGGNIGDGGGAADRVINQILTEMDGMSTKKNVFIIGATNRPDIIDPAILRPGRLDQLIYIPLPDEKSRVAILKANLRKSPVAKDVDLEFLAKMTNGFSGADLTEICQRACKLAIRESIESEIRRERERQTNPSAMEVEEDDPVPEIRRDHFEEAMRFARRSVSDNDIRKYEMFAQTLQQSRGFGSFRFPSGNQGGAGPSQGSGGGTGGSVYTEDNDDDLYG

[5] = target: T5, HeLa cell extract proteins (Homo sapiens, UniProt Q09161)
T5 construct: endogenous in cells; host or cells: HeLa cell extract
T5 sequence (Q09161 1-790): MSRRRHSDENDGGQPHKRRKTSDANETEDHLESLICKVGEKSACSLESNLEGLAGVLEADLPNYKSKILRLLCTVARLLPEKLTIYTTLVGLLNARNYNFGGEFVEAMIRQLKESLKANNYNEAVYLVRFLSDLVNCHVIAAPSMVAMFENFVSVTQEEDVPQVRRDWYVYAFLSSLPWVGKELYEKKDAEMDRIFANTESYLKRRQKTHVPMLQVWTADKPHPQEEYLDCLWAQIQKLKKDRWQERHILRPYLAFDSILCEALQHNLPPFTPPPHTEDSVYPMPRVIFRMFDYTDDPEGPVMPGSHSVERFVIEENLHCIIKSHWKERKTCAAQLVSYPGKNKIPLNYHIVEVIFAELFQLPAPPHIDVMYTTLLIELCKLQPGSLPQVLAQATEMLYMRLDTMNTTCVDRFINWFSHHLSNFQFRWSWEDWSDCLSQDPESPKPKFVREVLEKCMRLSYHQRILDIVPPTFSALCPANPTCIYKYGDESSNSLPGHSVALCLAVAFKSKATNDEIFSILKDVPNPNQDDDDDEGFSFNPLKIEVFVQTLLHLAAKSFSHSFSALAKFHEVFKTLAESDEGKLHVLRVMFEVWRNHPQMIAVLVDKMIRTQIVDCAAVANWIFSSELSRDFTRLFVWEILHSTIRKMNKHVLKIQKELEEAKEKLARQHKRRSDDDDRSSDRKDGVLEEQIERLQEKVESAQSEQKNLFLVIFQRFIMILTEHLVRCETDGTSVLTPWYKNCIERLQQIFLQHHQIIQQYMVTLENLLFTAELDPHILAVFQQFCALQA

[6] = target: T6, HeLa cell extract proteins (Homo sapiens, UniProt Q6ZN16)
T6 construct: endogenous in cells; host or cells: HeLa cell extract
T6 sequence (Q6ZN16 1-1313): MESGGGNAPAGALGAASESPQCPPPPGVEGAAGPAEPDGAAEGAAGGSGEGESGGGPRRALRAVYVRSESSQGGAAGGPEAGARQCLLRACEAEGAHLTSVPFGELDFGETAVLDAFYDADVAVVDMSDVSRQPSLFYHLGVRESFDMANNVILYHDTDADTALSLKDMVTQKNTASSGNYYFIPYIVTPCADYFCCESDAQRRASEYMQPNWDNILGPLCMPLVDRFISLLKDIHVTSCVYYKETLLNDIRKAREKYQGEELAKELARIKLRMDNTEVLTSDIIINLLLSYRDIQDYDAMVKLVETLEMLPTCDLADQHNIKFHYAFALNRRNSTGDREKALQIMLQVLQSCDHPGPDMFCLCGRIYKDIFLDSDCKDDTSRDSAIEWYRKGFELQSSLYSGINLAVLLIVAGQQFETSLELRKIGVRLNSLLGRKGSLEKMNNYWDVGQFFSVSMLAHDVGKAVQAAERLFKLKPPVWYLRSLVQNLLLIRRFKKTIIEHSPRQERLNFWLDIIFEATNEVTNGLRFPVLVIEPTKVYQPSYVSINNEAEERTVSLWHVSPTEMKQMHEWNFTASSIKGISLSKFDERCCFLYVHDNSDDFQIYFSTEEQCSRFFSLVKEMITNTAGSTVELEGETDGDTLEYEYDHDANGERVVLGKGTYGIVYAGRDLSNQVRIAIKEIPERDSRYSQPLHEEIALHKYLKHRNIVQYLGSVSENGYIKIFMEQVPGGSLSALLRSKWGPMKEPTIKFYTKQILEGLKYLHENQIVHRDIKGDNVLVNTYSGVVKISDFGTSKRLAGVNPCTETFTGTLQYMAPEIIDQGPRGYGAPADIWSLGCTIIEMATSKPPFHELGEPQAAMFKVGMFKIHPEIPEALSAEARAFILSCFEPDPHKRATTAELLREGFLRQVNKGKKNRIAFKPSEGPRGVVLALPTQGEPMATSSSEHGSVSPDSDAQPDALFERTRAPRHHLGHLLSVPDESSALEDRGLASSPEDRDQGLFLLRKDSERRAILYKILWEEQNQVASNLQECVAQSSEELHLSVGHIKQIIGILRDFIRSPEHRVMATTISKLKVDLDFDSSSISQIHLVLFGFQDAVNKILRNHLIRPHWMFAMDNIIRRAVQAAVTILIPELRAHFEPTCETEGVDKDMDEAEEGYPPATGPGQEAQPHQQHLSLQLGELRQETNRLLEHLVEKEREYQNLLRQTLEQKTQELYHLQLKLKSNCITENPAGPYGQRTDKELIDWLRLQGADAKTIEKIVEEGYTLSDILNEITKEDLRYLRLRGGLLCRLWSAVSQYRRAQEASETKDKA

[7] = target: T7, HeLa cell extract proteins (Homo sapiens, UniProt Q9NYU2)
T7 construct: endogenous in cells; host or cells: HeLa cell extract
T7 sequence (Q9NYU2 43-1555): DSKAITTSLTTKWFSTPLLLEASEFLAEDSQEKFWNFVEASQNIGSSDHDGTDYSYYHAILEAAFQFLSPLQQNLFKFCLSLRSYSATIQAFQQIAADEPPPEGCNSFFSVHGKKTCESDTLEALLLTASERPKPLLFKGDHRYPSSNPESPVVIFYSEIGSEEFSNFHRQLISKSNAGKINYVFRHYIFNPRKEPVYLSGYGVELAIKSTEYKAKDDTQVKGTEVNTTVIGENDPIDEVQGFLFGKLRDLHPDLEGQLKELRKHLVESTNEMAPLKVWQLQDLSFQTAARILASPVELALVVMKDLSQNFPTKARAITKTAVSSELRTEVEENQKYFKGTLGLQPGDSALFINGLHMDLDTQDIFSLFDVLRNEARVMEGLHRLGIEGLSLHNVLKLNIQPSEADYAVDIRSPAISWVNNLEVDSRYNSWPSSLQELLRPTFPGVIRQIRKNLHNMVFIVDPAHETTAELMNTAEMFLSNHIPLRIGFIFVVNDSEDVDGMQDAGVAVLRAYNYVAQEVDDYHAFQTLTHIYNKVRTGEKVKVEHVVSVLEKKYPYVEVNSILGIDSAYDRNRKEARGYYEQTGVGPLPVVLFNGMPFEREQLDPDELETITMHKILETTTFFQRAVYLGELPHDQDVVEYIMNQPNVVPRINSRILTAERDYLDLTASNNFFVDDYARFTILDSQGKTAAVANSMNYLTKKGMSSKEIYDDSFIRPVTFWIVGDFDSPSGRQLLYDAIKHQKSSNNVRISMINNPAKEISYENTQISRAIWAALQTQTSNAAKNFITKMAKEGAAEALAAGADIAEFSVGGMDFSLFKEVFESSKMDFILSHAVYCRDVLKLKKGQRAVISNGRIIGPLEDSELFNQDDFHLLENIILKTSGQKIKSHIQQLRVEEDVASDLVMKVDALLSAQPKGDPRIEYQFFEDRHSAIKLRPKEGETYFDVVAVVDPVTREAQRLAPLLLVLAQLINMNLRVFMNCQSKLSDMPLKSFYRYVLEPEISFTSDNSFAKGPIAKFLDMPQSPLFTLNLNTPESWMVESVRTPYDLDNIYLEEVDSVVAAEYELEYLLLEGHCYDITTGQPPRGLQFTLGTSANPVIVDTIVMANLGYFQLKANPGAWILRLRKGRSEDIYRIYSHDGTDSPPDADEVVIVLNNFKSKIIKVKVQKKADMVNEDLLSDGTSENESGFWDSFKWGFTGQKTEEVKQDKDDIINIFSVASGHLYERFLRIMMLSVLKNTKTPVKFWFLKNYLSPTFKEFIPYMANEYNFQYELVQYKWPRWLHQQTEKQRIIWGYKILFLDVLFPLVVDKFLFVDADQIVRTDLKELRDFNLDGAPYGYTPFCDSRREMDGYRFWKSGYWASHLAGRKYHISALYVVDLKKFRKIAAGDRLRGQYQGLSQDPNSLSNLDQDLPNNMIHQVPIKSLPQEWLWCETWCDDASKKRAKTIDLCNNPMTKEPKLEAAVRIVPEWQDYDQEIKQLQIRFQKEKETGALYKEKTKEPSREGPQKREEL

[8] = HeLa, protein CKB (CREATINE KINASE B-TYPE.)

T1 sequence (P07437 whole entry): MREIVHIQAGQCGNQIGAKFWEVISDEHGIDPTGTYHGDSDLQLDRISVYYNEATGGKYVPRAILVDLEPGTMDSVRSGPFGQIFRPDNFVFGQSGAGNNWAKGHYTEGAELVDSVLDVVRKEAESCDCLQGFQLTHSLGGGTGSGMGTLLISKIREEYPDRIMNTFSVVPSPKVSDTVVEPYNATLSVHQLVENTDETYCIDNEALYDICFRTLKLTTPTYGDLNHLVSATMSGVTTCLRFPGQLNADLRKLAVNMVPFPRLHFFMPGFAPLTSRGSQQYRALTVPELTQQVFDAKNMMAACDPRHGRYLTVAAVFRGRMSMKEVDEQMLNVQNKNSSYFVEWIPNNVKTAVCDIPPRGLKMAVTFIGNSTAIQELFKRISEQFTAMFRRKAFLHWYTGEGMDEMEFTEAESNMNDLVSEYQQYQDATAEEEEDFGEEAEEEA

With `Nc1nc2c(c(=O)[nH]1)N(C=O)C(CNc1ccc(C(=O)N[C@@H](CCC(=O)O)C(=O)O)cc1)CN2` (stereo partly shown) [LEU, leucovorin] the “fold changes relative to vehicle control” value ([1]; protein TUBB, HeLa) was 0.91, the “fold changes relative to vehicle control” value ([2]; HeLa, protein CKB) was 1.01 and the “fold changes relative to vehicle control” value ([3]; HeLa, protein HCCS) was 0.88. The “fold changes relative to vehicle control” value ([4]; HeLa, protein VCP) was 0.98, the “fold changes relative to vehicle control” value ([5]; protein NCBP1, HeLa) was 0.81 and the “fold changes relative to vehicle control” value ([6]; HeLa, protein MAP3K15) was 1. For the same compound, the “fold changes relative to vehicle control” value ([7]; HeLa, protein UGCGL1) was 1.09.

In the case of `Nc1nc2[nH]cc(CCc3ccc(C(=O)N[C@@H](CCC(=O)O)C(=O)O)cc3)c2c(=O)[nH]1` [PTX, pemetrexed], the “fold changes relative to vehicle control” value [1] was 0.84, the “fold changes relative to vehicle control” value [2] was 1.11 and the “fold changes relative to vehicle control” value [3] was 0.88. For the same compound, the “fold changes relative to vehicle control” value [4] was 0.98, the “fold changes relative to vehicle control” value [5] was 0.95 and the “fold changes relative to vehicle control” value [6] was 1.07. For the same compound, the “fold changes relative to vehicle control” value [7] was 1.02.

With `CCCCCCOc1ccc(Cc2cnc(N)nc2N)cc1` [compound 1] the “fold changes relative to vehicle control” value ([1]; HeLa, protein TUBB) was 0.93, the “fold changes relative to vehicle control” value [2, 8] was 1.55 fold and the “fold changes relative to vehicle control” value ([3]; HeLa, protein HCCS) was 0.84. The “fold changes relative to vehicle control” value ([4]; protein VCP, HeLa) was 0.94, the “fold changes relative to vehicle control” value ([5]; captured protein NCBP1, HeLa) was 0.91 and the “fold changes relative to vehicle control” value ([6]; captured protein MAP3K15, HeLa) was 1.03. The “fold changes relative to vehicle control” value ([7]; protein UGCGL1, HeLa) was 0.99.

For `CCCCCCOc1cccc(Cc2cnc(N)nc2N)c1` [compound 2], the “fold changes relative to vehicle control” value ([1]; HeLa, protein TUBB) was 0.82, the “fold changes relative to vehicle control” value [2, 8] was 2.55 fold and the “fold changes relative to vehicle control” value ([3]; HeLa, protein HCCS) was 0.9. The “fold changes relative to vehicle control” value ([4]; protein VCP, HeLa) was 1.29, the “fold changes relative to vehicle control” value ([5]; captured protein NCBP1, HeLa) was 1.03 and the “fold changes relative to vehicle control” value ([6]; captured protein MAP3K15, HeLa) was 1.02. The “fold changes relative to vehicle control” value ([7]; protein UGCGL1, HeLa) was 1.22.

In the case of `Nc1nc2cccc(-c3ccccc3)c2n1Cc1ccc(Cl)c(Cl)c1` [compound 3], the “fold changes relative to vehicle control” value ([1]; HeLa, protein TUBB) was 1.02, the “fold changes relative to vehicle control” value [2, 8] was 0.92 fold and the “fold changes relative to vehicle control” value ([3]; HeLa, protein HCCS) was 0.96. For the same compound, the “fold changes relative to vehicle control” value ([4]; protein VCP, HeLa) was 0.94, the “fold changes relative to vehicle control” value ([5]; captured protein NCBP1, HeLa) was 0.96 and the “fold changes relative to vehicle control” value ([6]; captured protein MAP3K15, HeLa) was 1.01. The “fold changes relative to vehicle control” value ([7]; protein UGCGL1, HeLa) was 1.05.

For `NCCOCCOCC(=O)Nc1nc2ncc(CNc3ccc(C(=O)NC(CCC(=O)O)C(=O)O)cc3)nc2c(=O)[nH]1` (stereo not shown) [compound 6], the “fold changes relative to vehicle control” value ([1]; protein TUBB, HeLa) was 0.95, the “fold changes relative to vehicle control” value ([2]; HeLa, protein CKB) was 1.23 and the “fold changes relative to vehicle control” value ([3]; HeLa, protein HCCS) was 0.75. For the same compound, the “fold changes relative to vehicle control” value ([4]; HeLa, protein VCP) was 1.07, the “fold changes relative to vehicle control” value ([5]; protein NCBP1, HeLa) was 0.89 and the “fold changes relative to vehicle control” value ([6]; HeLa, protein MAP3K15) was 1.03. The “fold changes relative to vehicle control” value ([7]; HeLa, protein UGCGL1) was 1.01.

`NCCCNc1ccc(C(=O)NC(CCC(=O)O)C(=O)O)cc1` (stereo not shown) [compound 7] was tested, and the “fold changes relative to vehicle control” value ([1]; protein TUBB, HeLa) was 0.98, the “fold changes relative to vehicle control” value ([2]; HeLa, protein CKB) was 0.93 and the “fold changes relative to vehicle control” value ([3]; HeLa, protein HCCS) was 0.98. The “fold changes relative to vehicle control” value ([4]; HeLa, protein VCP) was 1.01, the “fold changes relative to vehicle control” value ([5]; protein NCBP1, HeLa) was 0.93 and the “fold changes relative to vehicle control” value ([6]; HeLa, protein MAP3K15) was 1.1. For the same compound, the “fold changes relative to vehicle control” value ([7]; HeLa, protein UGCGL1) was 1.05.
